Results reported in PubChem BioAssay (NCI).
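How tested: cells in 96-well plates exposed to compound for 48 hours at five concentrations. At the GI50, growth is halved. The concentration for full growth arrest is given as TGI.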

Experiments:
Assay in all cases: inhibition of tumour cell growth, NCI panel, 48 h
[1] = system: 786-0 renal
[2] = system: HOP-92 NSCLC
[3] = system: HT29 colon
[4] = system: K-562 leukemia
[5] = system: OVCAR-5 ovarian
[6] = system: SF-268 CNS
[7] = system: SF-295 CNS
[8] = system: SK-MEL-28 melanoma
[9] = system: U251 CNS
[10] = system: T-47D breast

Compound | TGI [1] [µM] | GI50 [2] [µM] | TGI [2] [µM] | TGI [3] [µM] | TGI [4] [µM] | TGI [5] [µM] | TGI [6] [µM] | TGI [7] [µM] | TGI [8] [µM] | TGI [9] [µM] | TGI [10] [µM] | GI50 [3] [µM] | GI50 [5] [µM] | GI50 [7] [µM] | GI50 [10] [µM]
CC(=O)[O-].CC(=O)[O-].O=C(N/N=C/c1cc(Cl)cc(Cl)c1[OH2+])c1ccncc1.[Co+2] | > 100 | 23.6 | 95.9 | > 100 | > 100 | > 100 | > 100 | > 100 | > 100 |  |  |  |  |  | 
COC(=O)CC1(CNC(=O)OCc2ccccc2)OCCO1 | > 100 |  | > 100 |  | > 100 | > 100 |  | > 100 | > 100 | > 100 |  |  |  |  | 
CCOP(=O)(/C=C\n1cnc2c(=O)n(C(C)=O)c(N)nc21)OCC | > 100 |  |  | > 100 | > 100 | > 100 |  | > 100 | > 100 | > 100 | > 100 |  |  |  | 
CC(=O)c1ccc(Oc2ccc(/C(C)=N\N=C(N)N)cc2)cc1 |  |  | 13.8 | 3.52 |  | 17.4 | 16.1 | 6.18 | 17.4 | 10 |  |  |  |  | 
CC1(O)CC2C(CC1SCCO)C2(C)C (configuration not stated) | > 100 |  | > 100 | > 100 | > 100 | > 100 | > 100 | > 100 | > 100 | > 100 |  |  |  |  | 
CC(=O)O[C@H]1CC[C@]2(C)[C@H]3CC[C@@H]4[C@H]5[C@H](C(C)C)CC[C@]5(C(=O)OCC(CO)(CO)N=C(N)N)CC[C@@]4(C)[C@]3(C)CC[C@H]2C1(C)C |  | 1.48 | 2.93 | 3.29 |  | 3.09 |  | 3.79 |  |  | 2.91 | 1.75 | 1.67 | 1.86 | 1.51
COC(=O)C1=Nc2c(C)nn(-c3ccccc3)c2N=C(c2ccc(C)cc2)C1 | > 10 |  | > 10 | > 10 | > 10 |  | > 10 | > 10 | > 10 | > 10 | > 10 |  |  |  | 
COc1cccc2cc(C(N)=O)c(=N)oc12 | > 100 |  | > 100 | > 100 | > 100 | > 100 | > 100 |  | > 100 | > 100 | > 100 |  |  |  | 
C=C1c2c(cc3c(c2O)c(=O)c2ccccc2n3C)OC1(C)C |  |  | 65.9 | > 100 |  |  | > 100 | > 100 | > 100 | > 100 |  |  |  |  | 
O=C1c2ccccc2-c2nc(-c3cccnc3)cc3c2c1nc1ccccc13 | > 100 |  | > 100 | > 100 | > 100 | > 100 | > 100 | > 100 | > 100 | > 100 |  |  |  |  | 
O=C(NO)c1coc2ccccc2c1=O |  |  |  | > 100 | > 100 | > 100 | > 100 | > 100 | > 100 | > 100 |  |  |  |  | 
CN1CCC2(CC1)C(=O)N(N1CCCCCC1)C(=O)N2c1ccccc1 | > 100 |  |  | > 100 | > 100 | > 100 | > 100 | > 100 | > 100 | > 100 | > 100 |  |  |  | 
C=C(C=O)c1c2c(nc3ccccc13)C(=O)c1ccccc1C2=O | > 100 |  | 5.23 |  | > 22.5 | 4.92 | 3.02 | 2.76 |  | > 100 | 3.29 |  |  |  | 
CC[N+]1(C)CCC(O)(c2ccc(Cl)cc2)C(C(=O)c2ccc(Cl)cc2)C1 (configuration not stated) |  |  |  | 94.4 | 17.2 | 33.1 | 58.8 |  | 29.4 | 56.8 | 17.8 |  |  |  | 
COc1cc(/C=C/C(C)=O)ccc1OP(=O)(O)O | > 100 |  | > 100 | > 100 |  | > 100 | > 100 | > 100 | > 100 | > 100 |  |  |  |  | 
CC(C)(C)[Si](C)(C)OCCCC#CCO |  |  |  | > 100 | > 100 | > 100 | > 100 | > 100 | > 100 | > 100 |  |  |  |  | 
CCCNC(=S)N/N=C/c1cccc(C)n1 | > 100 |  | > 100 | > 100 | 77.5 | > 100 |  | > 100 |  | > 100 | > 100 |  |  |  | 
CC1CCCC2=C1C(c1ccc(Cl)cc1)n1c(s/c(=C\c3ccc(Cl)cc3)c1=O)=N2 (configuration not stated) | > 100 |  | > 100 | > 100 | > 100 | > 100 | > 100 |  | > 100 | > 100 | > 100 |  |  |  | 
NNC(=O)c1c(Cl)c(Cl)c(Cl)c(Cl)c1-c1nc2ccccc2[nH]1 | 55.8 |  | 43.9 | 61.8 | 26 | > 100 | > 100 | 24 | 53.4 |  | 24 |  |  |  | 
CCOP(=O)(Nc1ccc(-c2ccccc2)cc1)OCC | > 100 |  | > 100 | > 100 | > 100 | > 100 | > 100 | > 100 | > 100 | > 100 |  |  |  |  | 
COc1cc(N=NN(C)C)c(C(C)c2c3cc(OC)c(OC)cc3cc[n+]2C)cc1OC (configuration not stated) | > 100 |  |  | > 100 | > 100 | > 100 | > 100 | > 100 |  | > 100 | 76.2 |  |  |  | 
CC(=O)C1=C(N=[N+]=[N-])c2cccc3cccc(c23)C1=O | 33.7 |  | 42.8 | 39.3 | 89.8 | 54.8 | 75.2 | 61.7 |  | 66 | 41.2 |  |  |  | 
Cc1c(-c2cc3n(n2)C(c2cccs2)C(C#N)=C(c2ccccc2)N3)c(=O)n(-c2ccccc2)n1C (configuration not stated) |  |  | > 100 | > 100 | > 100 | > 100 | > 100 | > 100 | > 100 | > 90.8 |  |  |  |  | 
Cc1csc2nc(-c3ccc([N+](=O)[O-])cc3)c(/C=N/N=C(N)N)n12 | 3.24 |  | 2.22 | 3.21 |  | 2.85 | 3.29 | 3.24 | 3.23 | 3.24 | > 100 |  |  |  | 
Cc1nc2c(o1)C(=O)c1ccccc1/C2=N/c1ccccn1 | 58.7 |  | 36.9 | 41.3 | > 100 | 32.4 | 68.9 | > 100 | 32.8 | 30.4 |  |  |  |  | 
